{
  "source": "patent US9295732B2",
  "about": "“Conjugated TLR7 and/or TLR8 and TLR2 polycationic agonists” (CAYLA, priority 2013, dated 2016)",
  "key": {"[1]": {"biological_target": "T1, human TLR7 (Homo sapiens, UniProt Q9NYK1)", "T1 construct": "host or cells: HEK293 (HEK-Blue™ hTLR7)", "T1 sequence (Q9NYK1 27-1049)": "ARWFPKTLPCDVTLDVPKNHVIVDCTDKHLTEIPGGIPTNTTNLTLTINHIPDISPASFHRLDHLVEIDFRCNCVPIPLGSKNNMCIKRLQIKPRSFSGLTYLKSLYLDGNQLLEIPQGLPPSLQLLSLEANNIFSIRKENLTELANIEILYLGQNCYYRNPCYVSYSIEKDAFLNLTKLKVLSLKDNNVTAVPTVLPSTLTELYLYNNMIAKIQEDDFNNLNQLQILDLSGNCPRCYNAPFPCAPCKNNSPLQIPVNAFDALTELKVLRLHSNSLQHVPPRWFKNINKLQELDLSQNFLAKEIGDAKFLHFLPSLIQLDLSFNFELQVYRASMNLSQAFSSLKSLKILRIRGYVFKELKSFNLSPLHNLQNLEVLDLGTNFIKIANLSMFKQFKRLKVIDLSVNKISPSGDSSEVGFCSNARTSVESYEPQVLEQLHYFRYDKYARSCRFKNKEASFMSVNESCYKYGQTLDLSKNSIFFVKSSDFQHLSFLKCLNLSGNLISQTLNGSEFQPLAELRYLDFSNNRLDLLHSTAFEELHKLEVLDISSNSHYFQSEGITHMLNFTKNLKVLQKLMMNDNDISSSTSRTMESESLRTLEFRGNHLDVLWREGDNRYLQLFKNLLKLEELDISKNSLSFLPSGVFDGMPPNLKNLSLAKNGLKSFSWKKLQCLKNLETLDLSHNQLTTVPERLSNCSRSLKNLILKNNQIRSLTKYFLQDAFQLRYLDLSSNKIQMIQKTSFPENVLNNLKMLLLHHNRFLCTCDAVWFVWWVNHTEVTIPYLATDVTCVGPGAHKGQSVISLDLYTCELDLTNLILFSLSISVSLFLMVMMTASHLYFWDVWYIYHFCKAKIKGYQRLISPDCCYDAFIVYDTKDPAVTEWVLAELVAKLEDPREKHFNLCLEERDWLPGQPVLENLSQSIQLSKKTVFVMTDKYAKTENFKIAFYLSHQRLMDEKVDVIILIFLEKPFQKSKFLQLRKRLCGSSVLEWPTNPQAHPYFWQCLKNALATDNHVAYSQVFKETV", "experiment": "HEK-Blue hTLR7 NF-κB/AP-1 SEAP reporter assay", "assay_type": "cell-based", "settings": "HEK-Blue hTLR7 cells, 10 μg/mL to 10 pg/ml, 24 hours, OD at 655 nm, FIG. 1", "experimental": "(§1) Cell-based assays were carried out using TLR7 and TLR2 reporter cell lines (InvivoGen). The reporter cell lines are engineered HEK293 cells, a human embryonic kidney cell line (ATCC, CRL-1573) that stably express either murine TLR7 (HEK-Blue™ mTLR7) or human TLR7 (HEK-Blue™ hTLR7) or human TLR2 (HEK-Blue™ hTLR2) with an NF-κB-inducible secreted embryonic alkaline phosphatase (SEAP) as the reporter gene. The SEAP reporter gene is under the control of the NF-κB and AP-1-inducible promoter, which, upon treatment with a corresponding TLR ligand and activation of NF-κB and AP-1, induces the production of SEAP. Detection of SEAP is measured following culturing cells in HEK-Blue™ Detection media (InvivoGen). HEK-Blue™ Detection contains a SEAP substrate that when hydrolysed by SEAP produces a colorimetric change allowing for detection of SEAP as the protein is secreted. […] These assays were carried out using RAW-Blue™ Cells (InvivoGen), derived from RAW 264.7 mouse leukemic monocyte macrophage cell line (ATCC, CRL 2278) stably overexpressing a NF-B/AP-1 inducible SEAP reporter constructs.\n(§2) To perform the assay, cells were seeded on 96 well microliter plates at 50,000 or 100,000 cells per well for HEK-Blue™ Cells and RAW-Blue™ Cells respectively, and cultured at 37° C. in the presence of the conjugated compounds The TLR7-TLR2 polyamine molecules were prepared as follows: First, stock solutions of the conjugated compounds of the invention were prepared in ethanol or water to a concentration of 10 mg/ml.\n(§3) The working dilutions of the conjugated TLR7-TLR2 polyamine agonists made up in water or PBS were directly added to the reporter cell lines at a final concentration ranging from 10 μg/mL to 10 pg/ml and incubated at 37° C. for 24 hours. After 24 hours of incubation, the effect on reporter gene activity was determined by reading the OD at 655 nm using iMark™ Microplate Reader (BIO-RAD)."}, "[2]": {"system": "plasmid DNA (pDNA)", "experiment": "Gel shift (mobility shift) assay of pDNA complexation", "assay_type": "binding", "settings": "pDNA:molecule ratio 3:24 (w:w), 0.8% agarose gel, compared to pDNA alone", "experimental": "Then, 10 μl of pDNA:TLR7-TLR2 polyamine molecule complexes and 2 μl of charge buffer were mixed and loaded into wells of a 0.8% agarose gel. Samples were migrated through the gel in TAE buffer under 135 voltage for 21 mins and the migration of the pDNA was visualized following ethidium bromide staining under UV light. The ability of TLR7-TLR2 polyamine molecules to complex/associate with the pDNA was identified by partial or complete retardation of the pDNA migration toward the anode in the gel compared to pDNA alone. […] Ethidium bromide intercalation of pDNA in complex with molecules allowed visualization of complexed pDNA as a smear in the wells of the gel."}, "[3]": {"biological_target": "T2, murine TLR7 (Mus musculus, UniProt P58681)", "T2 construct": "host or cells: HEK293 (HEK-Blue™ mTLR7)", "T2 sequence (P58681 27-1050)": "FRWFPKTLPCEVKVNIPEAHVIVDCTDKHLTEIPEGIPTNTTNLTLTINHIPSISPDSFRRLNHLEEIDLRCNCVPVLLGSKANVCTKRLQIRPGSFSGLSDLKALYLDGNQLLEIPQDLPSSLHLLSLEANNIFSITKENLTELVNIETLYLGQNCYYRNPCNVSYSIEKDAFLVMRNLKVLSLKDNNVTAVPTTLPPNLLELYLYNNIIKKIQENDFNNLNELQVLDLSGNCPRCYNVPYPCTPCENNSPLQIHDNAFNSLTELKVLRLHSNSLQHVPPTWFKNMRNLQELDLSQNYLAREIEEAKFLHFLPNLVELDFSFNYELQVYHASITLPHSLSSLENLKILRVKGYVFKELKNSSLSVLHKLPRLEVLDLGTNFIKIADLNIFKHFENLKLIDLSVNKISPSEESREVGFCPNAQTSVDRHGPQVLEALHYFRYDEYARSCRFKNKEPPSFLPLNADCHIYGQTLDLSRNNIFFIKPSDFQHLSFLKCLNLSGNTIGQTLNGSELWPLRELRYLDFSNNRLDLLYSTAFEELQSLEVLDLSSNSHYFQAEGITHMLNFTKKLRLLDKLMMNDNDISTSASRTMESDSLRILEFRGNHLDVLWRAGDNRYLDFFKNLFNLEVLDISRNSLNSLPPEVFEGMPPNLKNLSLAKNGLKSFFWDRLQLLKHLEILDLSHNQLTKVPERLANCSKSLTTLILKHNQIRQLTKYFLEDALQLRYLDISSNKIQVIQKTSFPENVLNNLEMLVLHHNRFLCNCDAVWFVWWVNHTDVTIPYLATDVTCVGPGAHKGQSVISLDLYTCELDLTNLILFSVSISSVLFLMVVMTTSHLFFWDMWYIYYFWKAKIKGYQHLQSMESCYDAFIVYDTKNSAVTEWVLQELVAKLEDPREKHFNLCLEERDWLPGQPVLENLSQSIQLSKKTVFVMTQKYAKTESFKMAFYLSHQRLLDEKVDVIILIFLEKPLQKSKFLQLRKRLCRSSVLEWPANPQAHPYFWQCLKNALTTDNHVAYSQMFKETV", "experiment": "HEK-Blue mTLR7 NF-κB/AP-1 SEAP reporter assay", "assay_type": "cell-based", "settings": "HEK-Blue mTLR7 cells, 10 μg/mL to 10 pg/ml, 24 hours, OD at 655 nm, FIG. 2", "experimental": "as §1, §2, §3"}, "[4]": {"system": "endogenous TLR2 and TLR7 in RAW-Blue™ Cells", "experiment": "RAW-Blue Cells NF-κB/AP-1 SEAP reporter assay", "assay_type": "cell-based, mouse", "settings": "24 hours, OD at 655 nm, FIG. 4", "experimental": "as §1, §2, §3"}, "[5]": {"biological_target": "T3, human TLR2 (Homo sapiens, UniProt O60603)", "T3 construct": "host or cells: HEK293 (HEK-Blue™ hTLR2)", "T3 sequence (O60603 21-784)": "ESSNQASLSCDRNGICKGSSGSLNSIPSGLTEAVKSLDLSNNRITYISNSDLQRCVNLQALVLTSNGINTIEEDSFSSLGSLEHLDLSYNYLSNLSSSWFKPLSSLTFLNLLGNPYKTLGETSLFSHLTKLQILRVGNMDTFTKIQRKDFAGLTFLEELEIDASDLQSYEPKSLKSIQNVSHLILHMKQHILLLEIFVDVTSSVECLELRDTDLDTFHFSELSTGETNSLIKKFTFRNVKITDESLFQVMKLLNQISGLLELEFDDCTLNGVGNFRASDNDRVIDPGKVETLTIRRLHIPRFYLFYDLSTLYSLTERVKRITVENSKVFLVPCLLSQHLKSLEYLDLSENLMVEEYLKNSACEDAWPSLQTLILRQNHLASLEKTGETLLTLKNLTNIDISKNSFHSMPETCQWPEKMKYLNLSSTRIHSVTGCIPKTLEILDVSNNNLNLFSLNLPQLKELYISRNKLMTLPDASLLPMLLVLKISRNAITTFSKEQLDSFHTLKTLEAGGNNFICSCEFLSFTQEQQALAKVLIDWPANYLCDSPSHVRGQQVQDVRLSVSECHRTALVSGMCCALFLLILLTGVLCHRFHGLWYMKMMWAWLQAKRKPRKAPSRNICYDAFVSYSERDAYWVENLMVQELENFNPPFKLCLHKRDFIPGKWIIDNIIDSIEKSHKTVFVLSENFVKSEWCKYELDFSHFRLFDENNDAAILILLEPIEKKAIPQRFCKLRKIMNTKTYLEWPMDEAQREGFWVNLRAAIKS", "experiment": "HEK-Blue hTLR2 NF-κB/AP-1 SEAP reporter assay", "assay_type": "cell-based", "settings": "HEK-Blue hTLR2 cells, 10 μg/mL to 10 pg/ml, 24 hours, OD at 655 nm, FIG. 3", "experimental": "as §1, §2, §3"}},
  "data": [
    {"smiles": "CCCCCCCCCCCCCCCC(=O)N[C@@H](CSCC(COC(=O)CCCCCCCCCCCCCCC)OC(=O)CCCCCCCCCCCCCCC)C(=O)N[C@@H](CO)C(=O)N[C@@H](CCCCN)C(=O)N[C@@H](CCCCN)C(=O)N[C@@H](CCCCNC(=O)c1ccc(Cn2c(O)nc3c(N)nc(NCCCC)nc32)cc1)C(=O)N[C@@H](CCCCN)C(=O)O", "note": "(stereo partly drawn) [CL535, (2S,5S,8S,11S,14S,17R)-5-(4-(4-((6-amino-2-(butylamino)-8-hydroxy-9H-purin-9-yl)methyl)benzamido)butyl)-2,8,11-tris(4-aminobutyl)-14-(hydroxymethyl)-4,7,10,13,16,24-hexaoxo-17-palmitamido-21-(palmitoyloxy)-23-oxa-19-thia-3,6,9,12,15-pentaazanonatriacontan-1-oic acid]", "values": [
      {"measurement": "ability to activate hTLR7", "setting": "[1]", "result": "activate hTLR7"},
      {"measurement": "ability to complex pDNA (retardation of pDNA migration in agarose gel)", "setting": "[2]", "result": "inability to migrate through an agarose gel"},
      {"measurement": "ability to activate mTLR7", "setting": "[3]", "result": "activate mTLR7"},
      {"measurement": "ability to activate endogenous TLR2 and TLR7 in RAW-Blue Cells", "setting": "[4]", "result": "activate endogenous TLR2 and TLR7"},
      {"measurement": "ability to activate hTLR2", "setting": "[5]", "result": "activate hTLR2"}
    ]},
    {"smiles": "CCCCCCCCCCCCCCCC(=O)OCC(CSC[C@H](N)C(=O)N[C@@H](CO)C(=O)N[C@@H](CCCCN)C(=O)N[C@@H](CCCCN)C(=O)N[C@@H](CCCCNC(=O)c1ccc(Cn2c(O)nc3c(N)nc(NCCCC)nc32)cc1)C(=O)N[C@@H](CCCCN)C(=O)O)OC(=O)CCCCCCCCCCCCCCC", "note": "(stereo partly drawn) [CL530, (2S,5S,8S,11S,14S,17R)-17-amino-5-(4-(4-((6-amino-2-(butylamino)-8-hydroxy-9H-purin-9-yl)methyl)benzamido)butyl)-2,8,11-tris(4-aminobutyl)-14-(hydroxymethyl)-4,7,10,13,16,24-hexaoxo-21-(palmitoyloxy)-23-oxa-19-thia-3,6,9,12,15-pentaaza nonatriacontan-1-oic acid]", "values": [
      {"measurement": "ability to activate hTLR7", "setting": "[1]", "result": "activate hTLR7"},
      {"measurement": "ability to complex pDNA (retardation of pDNA migration in agarose gel)", "setting": "[2]", "result": "inability to migrate through an agarose gel"},
      {"measurement": "ability to activate mTLR7", "setting": "[3]", "result": "activate mTLR7"},
      {"measurement": "ability to activate endogenous TLR2 and TLR7 in RAW-Blue Cells", "setting": "[4]", "result": "activate endogenous TLR2 and TLR7"},
      {"measurement": "ability to activate hTLR2", "setting": "[5]", "result": "activate hTLR2"}
    ]},
    {"smiles": "CCCCCCCCCCCCCCCC(=O)N[C@@H](CSCC(COC(=O)CCCCCCCCCCCCCCC)OC(=O)CCCCCCCCCCCCCCC)C(=O)N[C@@H](CO)C(=O)N[C@@H](CCCCNC(=O)c1ccc(Cn2c(O)nc3c(N)nc(NCCCC)nc32)cc1)C(=O)N[C@@H](CCCCN)C(=O)N[C@@H](CCCCN)C(=O)N[C@@H](CCCCN)C(=O)O", "note": "(stereo partly drawn) [CL537, (2S,5S,8S,11S,14S,17R)-11-(4-(4-((6-amino-2-(butylamino)-8-hydroxy-9H-purin-9-yl)methyl)benzamido)butyl)-2,5,8-tris(4-aminobutyl)-14-(hydroxymethyl)-4,7,10,13,16,24-hexaoxo-17-palmitamido-21-(palmitoyloxy)-23-oxa-19-thia-3,6,9,12,15-pentaazanonatria contan-1-oic acid]", "values": [
      {"measurement": "ability to activate hTLR7", "setting": "[1]", "result": "activate hTLR7"},
      {"measurement": "ability to complex pDNA (retardation of pDNA migration in agarose gel)", "setting": "[2]", "result": "inability to migrate through an agarose gel"},
      {"measurement": "ability to activate mTLR7", "setting": "[3]", "result": "activate mTLR7"},
      {"measurement": "ability to activate endogenous TLR2 and TLR7 in RAW-Blue Cells", "setting": "[4]", "result": "activate endogenous TLR2 and TLR7"},
      {"measurement": "ability to activate hTLR2", "setting": "[5]", "result": "activate hTLR2"}
    ]},
    {"smiles": "CCCCCCCCCCCCCCCC(=O)OCC(CSC[C@H](N)C(=O)N[C@@H](CO)C(=O)N[C@@H](CCCCNC(=O)c1ccc(Cn2c(O)nc3c(N)nc(NCCCC)nc32)cc1)C(=O)N[C@@H](CCCCN)C(=O)N[C@@H](CCCCN)C(=O)N[C@@H](CCCCN)C(=O)O)OC(=O)CCCCCCCCCCCCCCC", "note": "(stereo partly drawn) [CL533, (2S,5S,8S,11S,14S,17R)-17-amino-11-(4-(4-((6-amino-2-(butylamino)-8-hydroxy-9H-purin-9-yl)methyl)benzamido)butyl)-2,5,8-tris(4-aminobutyl)-14-(hydroxylmethyl)-4,7,10,13,16,24-hexaoxo-21-(palmitoyloxy)-23-oxa-19-thia-3,6,9,12,15-pentaazanonatria contan-1-oic acid]", "values": [
      {"measurement": "ability to activate hTLR7", "setting": "[1]", "result": "activate hTLR7"},
      {"measurement": "ability to complex pDNA (retardation of pDNA migration in agarose gel)", "setting": "[2]", "result": "inability to migrate through an agarose gel"},
      {"measurement": "ability to activate mTLR7", "setting": "[3]", "result": "activate mTLR7"},
      {"measurement": "ability to activate endogenous TLR2 and TLR7 in RAW-Blue Cells", "setting": "[4]", "result": "activate endogenous TLR2 and TLR7"},
      {"measurement": "ability to activate hTLR2", "setting": "[5]", "result": "activate hTLR2"}
    ]}
  ]
}
